The source of these data is PMC3096752 (Clinical cancer research : an official journal of the …, 2011).

In series [1] the test system is patients with B cell malignancies (multiple myeloma, indolent and mantle cell lymphoma). The series can be described thus: Phase I 3+3 dose escalation: DLT and MTD. It is filed as in vivo, human.
The nature of series [2]: Alvocidib plasma pharmacokinetics. Format: in vivo, human. The settings on record: mean ± SD.
Series [3] relates to mantle cell lymphoma. The settings on record: bortezomib alone; cited from earlier work.
Series [4] deals with refractory/relapsed MM. The settings on record: cited from earlier work.
Series [5] relates to refractory/relapsed indolent NHL (including follicular, marginal zone and SLL). The settings on record: cited from earlier work.
Setting [6] is: Dose Level 1 (n=8 doses): alvocidib 20+20 mg/m^2.
Where [7] appears, read: Dose Level 2 (n=6 doses): alvocidib 30+30 mg/m^2.
The mark [8] stands for this setting: Dose Level 3 (n=3 doses): alvocidib 30+50 mg/m^2.

On to `CN1CC[C@H](c2c(O)cc(O)c3c(=O)cc(-c4ccccc4Cl)oc23)[C@H](O)C1` [alvocidib], for which the “MTD, alvocidib 4 hour infusion” value in series [1] (days 1 and 8, 21 day cycle, after the 30 min bolus, in combination with bortezomib) was determined as 30 mg/m^2. Also, the “MTD, alvocidib 30 min bolus infusion” value in series [1] (days 1 and 8, 21 day cycle, in combination with bortezomib) came to 30 mg/m^2. Besides, in series [2] (setting [6]), the CL is 13,243 ± 2,540 ml/h/m^2, the K10 is 0.803 ± 0.237 h⁻¹ and the V1 is listed as 18,512 ± 8,687 ml/m^2. Also, in series [2] (setting [7]), the CL was 12,825 ± 3,267 ml/h/m^2, the K10 amounted to 1.04 ± 0.438 h⁻¹ and the V1 is listed as 14,888 ± 7,685 ml/m^2. In series [2] (setting [8]), the CL is reported as 18,137 ± 8,097 ml/h/m^2, the K10 came out at 0.569 ± 0.169 h⁻¹, the V1 is given as 31,380 ± 7,368 ml/m^2 and the V2 is listed as 48,448 ± 23,397 ml/m^2.
For the molecule `CC(C)C[C@H](NC(=O)[C@H](Cc1ccccc1)NC(=O)c1cnccn1)B(O)O` [bortezomib], in series [1] (IV push days 1, 4, 8, 11, 21 day cycle, in combination with alvocidib), the “MTD, bortezomib” value was found to be 1.3 mg/m^2. Moreover, in series [3], the “single-agent activity (response rate)” value is reported as “approximately 33%”. Moreover, the “responses to single-agent bortezomib” value in series [4] was “approximately 35%”. Further, the “response rates to single agent bortezomib” value in series [5] was “approximately 13.3%”.
